The numbers were not newly measured in patent US20020082306A1, “Aqueous formulation of beta carotene” (Sanochemia Pharmazeutika Aktiengesellschaft, priority 1998, published 2002), which cites them from elsewhere.

For data set [1] the following is noted: in the presence of light and heat.

Take `CC1=C(/C=C/C(C)=C/C=C/C(C)=C/C=C/C=C(C)/C=C/C=C(C)/C=C/C2=C(C)CCCC2(C)C)C(C)(C)CCC1` [Beta-carotene, beta-carotene]: the “decomposition of dissolved beta-carotene by oxygen from ambient air” value in data set [1] is “easily decomposed”. The solubility in cyclohexane entry (cyclohexane) is recorded as “hardly soluble”. The solubility in ethanol result (ethanol) is given as “hardly soluble”. Also, where the note is “ether”, the solubility in ether result was “hardly soluble”. Besides, under “water as well as the usually employed aqueous formulations”, the solubility in water result is recorded as “practically insoluble”.
